Consider 15 compounds from US20240366612A1, “COMPOUNDS AND METHODS FOR MODULATING NUCLEIC ACID SPLICING” (REMIX THERAPEUTICS INC., priority 2021, published 2024).

Each structure is given as a SMILES string.

In one series the test system is MYB CJ mRNA. As to the kind of experiment: Gene panel canonical junction qPCR assay, MYB. The series is classed as cell-based. The note with it: Homo sapiens, larger gene panel, read-out: MYB IC50 (decrease in CJ mRNA levels). On the procedure:
Compounds described herein were used to modulate RNA transcript abundance in cells. The expression of a target mRNA was measured by detecting the formation of an exon-exon junction in the canonical transcript (CJ). A compound mediated exon-inclusion event was detected by observing an increase in formation of a new junction with an alternative exon (AJ). Real-time qPCR assays were used to detect these splicing switches and interrogate the potency of various compounds towards different target genes. A high-throughput real time quantitative PCR (RT-qPCR) assay was developed to measure these two isoforms of the mRNA (CJ and AJ) for exemplary genes, such as HTT, SMN2, and MYB, together with a control housekeeping gene, GAPDH or GUSB or PPIA, used for normalization. Briefly, the A673 or K562 cell line was treated with various compounds described herein (e.g., compounds of Formula (I)). After treatment, the levels of the HTT, MYB, or SMN2 mRNA targets were determined from each sample of cell lysate by cDNA synthesis followed by qPCR.
The A673 cell line was cultured in DMEM with 10% FBS. Cells were diluted with full growth media and plated in a 96-well plate (15,000 cells in 100 ul media per well). The plate was incubated at 37° C. with 5% CO2 for 24 hours to allow cells to adhere. An 11-point 3-fold serial dilution of the compounds was made in DMSO then diluted in media in an intermediate plate. Compounds were transferred from the intermediate plate to the cell plate with the top dose at a final concentration of 10 uM in the well. Final DMSO concentration was kept at or below 0.25%. The cell plate was returned to the incubator at 37° C. with 5% CO2 for an additional 24 hours.
The K562 cell line was cultured in IMDM with 10% FBS. For K562, cells were diluted with full growth media and plated in either a 96-well plate (50,000 cells in 50 uL media per well) or a 384-well plate (8,000-40,000 cells in 45 uL media per well). An 11-point 3-fold serial dilution of the compounds were made in DMSO then diluted in media in an intermediate plate. Compound was transferred from the intermediate plate to the cell plate with the top dose at a final concentration of 10 uM in the well. Final DMSO concentration was kept at or below 0.25%. Final volume was 100 uL for 96-well plate and 50 uL for 384-well plate. The cell plate was then placed in an incubator at 37° C. with 5% CO2 for 24 hours.
The data analysis was performed by first determining the ΔCt vs the housekeeper gene. This ΔCt was then normalized against the DMSO control (ΔΔCt) and converted to RQ (relative quantification) using the 2^(−ΔΔCt) equation. The RQ were then converted to a percentage response by arbitrarily setting an assay window of 3.5 and 4.0 ΔCt for HTT-CJ and MYB-CJ respectively and an assay window of 9 and 3 ΔCt for HTT-AJ and MYB-AJ in 96 well format (50,000 K562 cells/well and 15,000 A673 cells per well) and an assay window of 3 and 4 ΔCt for HTT-CJ and MYB-CJ respectively and an assay window of 5 and 3 ΔCt for HTT-AJ and MYB-AJ respectively in 384 well format (8,000 K562 cells/well example). […] The percentage response was then fitted to the 4 parametric logistic equation to evaluate the concentration dependence of compound treatment. The increase in AJ mRNA is reported as AC50 (compound concentration having […] in AJ increase) while the decrease in CJ mRNA levels is reported as IC50 (compound concentration having 50% response in CJ decrease).
Additional studies were carried out for a larger panel of genes using the protocol provided above. The junction between flanking upstream and downstream exons was used to design canonical junction qPCR assays. At least one of the forward primer, reverse primer or the CY5-labeled 5′ nuclease probe (with 3′ quencher such as ZEN/Iowa Black FQ) was designed to overlap with the exon junction to capture the CJ mRNA transcript. […]

In series [1] the test system is HiBiT-tagged MYB protein in K562 cells. As to the kind of experiment: HiBiT protein abundance assay, MYB. It is filed as cell-based, human. Particulars: HiBiT-modified K562 cells, 24 hours, luminescence. The procedure, abridged:
(§1)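 K562 lines with the endogenous target HiBiT-tagged, seeded in IMDM+1% FBS, got a 10-point 3-fold dilution series (top final 10 μM, DMSO ≤0.25%) for 24 hours at 37° C. Lytic LgBiT luminescence was normalized against unmodified-K562 and DMSO-only controls, and IC50 was interpolated at 50% from a four-parameter logistic fit.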
In general terms: With HiBiT, luminescence reflects the tagged protein that the partner subunit can reach.

Series [2] concerns HiBiT-tagged Target C protein in K562 cells. Description: HiBiT protein abundance assay, Target C. The series is classed as cell-based, human. Particulars: HiBiT-modified K562 cells, 24 hours, luminescence. The procedure, abridged: as §1
In series [3] the test system is HiBiT-tagged HTT protein in K562 cells. Description: HiBiT protein abundance assay, HTT. It is filed as cell-based, human. The note with it: HiBiT-modified K562 cells, 24 hours, luminescence. Put shortly:
as §1

Series [4] can be described thus: Cell Titer Glo 2.0 cell viability assay. Particulars: human, K562 cells. In general terms: ATP-based viability assays read luminescence as a measure of living cells.
Description: Compounds described herein were screened for toxicity in K562 (human chronic myelogenous leukemia) cells using a Cell Titer Glo 2.0 assay.
• Promega CellTiter-Gbo® 2.0 Cell Viability Assay (cat #G9241) • Corning 384-well TC-treated microplates (cat #3570)
Cells were plated at 500 cells/well (K562 cells) in 45 μL of IMDM supplemented with 10% FBS in a 384-well opaque plate. Wells containing only medium were used as a blank control. Test compounds (e.g., compounds of Formula (I), (II), and (III)) were first serially diluted in DMSO then diluted 1:100 with IMDM+10% FBS. The final concentration of DMSO was 0.1% in each well. The cells were incubated for 72 hours at 37° C. and 5% CO2 before assaying with Cell Titer Glo 2.0 reagent.

On to `Cc1cc(-c2nn3c(=O)cc(N4CCN(C)CC4)nc3s2)cc2cn(C)nc12` [Compound 210, 2-(2,7-dimethyl-2H-indazol-5-yl)-7-(4-methylpiperazin-1-yl)-5H-[1,3,4]thiadiazolo[3,2-a]pyrimidin-5-one], for which the IC50 (in the series with MYB CJ mRNA; in series [1]; in series [2]; in series [3]) was 1000 to 10000 nM in each case. Further, the GI50 at 72 h in series [4] is 1000 to 10000 nM.

For the compound `Cc1cn2nc(-c3cc(=O)n4cc(N5CCNC6(CC6)C5)sc4n3)cc(C)c2n1` [Compound 211, 7-(2,8-dimethylimidazo[1,2-b]pyridazin-6-yl)-2-(4,7-diazaspiro[2.5]octan-7-yl)-5H-thiazolo[3,2-a]pyrimidin-5-one], the IC50 (with MYB CJ mRNA; in series [1]; in series [2]; in series [3]) was 1000 to 10000 nM each time. In series [4], this compound had a GI50 at 72 h of 1000 to 10000 nM.

For the compound `Cc1cn2nc(-c3cn4c(=O)cc(N5CCNC6(CC6)C5)nc4s3)cc(C)c2n1` [Compound 212, 2-(2,8-dimethylimidazo[1,2-b]pyridazin-6-yl)-7-(4,7-diazaspiro[2.5]octan-7-yl)-5H-thiazolo[3,2-a]pyrimidin-5-one], the IC50 (in the series on MYB CJ mRNA; in series [1]; in series [2]; in series [3]) was 1000 to 10000 nM in each case. Also, the GI50 at 72 h in series [4] lay within 1000 to 10000 nM.

As to `Cc1cn2cc(-c3cn4c(=O)cc(N5CCNCC5)nc4s3)cc(F)c2n1` [Compound 213, 2-(8-fluoro-2-methylimidazo[1,2-a]pyridin-6-yl)-7-(piperazin-1-yl)-5H-thiazolo[3,2-a]pyrimidin-5-one], the IC50 (in the series with MYB CJ mRNA; in series [1]; in series [2]; in series [3]) was > 10000 nM throughout. Moreover, the GI50 at 72 h in series [4] was > 10000 nM.

Turning to `Cc1cn2cc(-c3nn4c(=O)cc(N5CCNCC5)nc4s3)cc(F)c2n1` [Compound 214, 2-(8-fluoro-2-methylimidazo[1,2-a]pyridin-6-yl)-7-(piperazin-1-yl)-5H-[1,3,4]thiadiazolo[3,2-a]pyrimidin-5-one], the IC50 in the series on MYB CJ mRNA was 1000 to 10000 nM; in series [1], > 10000 nM; in series [2], > 10000 nM; in series [3] it was > 10000 nM. The same compound displayed a GI50 at 72 h in series [4] of 1000 to 10000 nM.

As for `Cc1cn2cc(-c3nn4c(=O)cc(N5CCNC6(CC6)C5)nc4s3)cc(F)c2n1` [Compound 216, 2-(8-fluoro-2-methylimidazo[1,2-a]pyridin-6-yl)-7-(4,7-diazaspiro[2.5]octan-7-yl)-5H-[1,3,4]thiadiazolo[3,2-a]pyrimidin-5-one], the IC50 (in the series on MYB CJ mRNA; in series [1]; in series [2]; in series [3]) was 1000 to 10000 nM in each case. In series [4], the GI50 at 72 h is 1000 to 10000 nM.

In the case of `Cc1cn2cc(-c3nn4c(=O)cc(N5CCN(C)CC5)nc4s3)cc(F)c2n1` [Compound 217, 2-(8-fluoro-2-methylimidazo[1,2-a]pyridin-6-yl)-7-(4-methylpiperazin-1-yl)-5H-[1,3,4]thiadiazolo[3,2-a]pyrimidin-5-one], the IC50 (with MYB CJ mRNA; in series [1]; in series [2]; in series [3]) was 1000 to 10000 nM each time. In series [4], this compound returned a GI50 at 72 h of 1000 to 10000 nM.

`Cc1cn2cc(-c3nn4c(=O)cc(N5CCN(C)C6(CC6)C5)nc4s3)cc(F)c2n1` [Compound 218, 2-(8-fluoro-2-methylimidazo[1,2-a]pyridin-6-yl)-7-(4-methyl-4,7-diazaspiro[2.5]octan-7-yl)-5H-[1,3,4]thiadiazolo[3,2-a]pyrimidin-5-one]: the IC50 (in the series with MYB CJ mRNA; in series [1]; in series [2]; in series [3]) was 1000 to 10000 nM each time. Moreover, the GI50 at 72 h in series [4] was in the range of 1000 to 10000 nM.

`Cn1cc2cc(-n3cnc4nc(N5CCNCC5)sc4c3=O)ccc2n1` [Compound 225, 6-(2-methyl-2H-indazol-5-yl)-2-(piperazin-1-yl)thiazolo[4,5-d]pyrimidin-7(6H)-one]: the IC50 (with MYB CJ mRNA; in series [1]; in series [2]; in series [3]) was > 10000 nM throughout. Moreover, the GI50 at 72 h in series [4] was > 10000 nM.

Regarding `Cc1cn2cc(-n3cnc4nc(N5CCNCC5)sc4c3=O)cc(F)c2n1` [Compound 226, 6-(8-fluoro-2-methylimidazo[1,2-a]pyridin-6-yl)-2-(piperazin-1-yl)thiazolo[4,5-d]pyrimidin-7(6H)-one], the IC50 (in the series with MYB CJ mRNA; in series [1]; in series [2]; in series [3]) was 100 to 1000 nM in each case. Further, in series [4], the GI50 at 72 h is 100 to 1000 nM.

Take `Cc1cn2cc(-n3cnc4nc(N5CCN(C)CC5)sc4c3=O)cc(F)c2n1` [Compound 228, 6-(8-fluoro-2-methylimidazo[1,2-a]pyridin-6-yl)-2-(4-methylpiperazin-1-yl)thiazolo[4,5-d]pyrimidin-7(6H)-one]: the IC50 (in the series with MYB CJ mRNA; in series [1]; in series [2]; in series [3]) was 1000 to 10000 nM in each case. The same compound gave a GI50 at 72 h in series [4] of 1000 to 10000 nM.

`Cc1cn2cc(-n3cnc4nc(N5CCNCC5)sc4c3=O)cc(C(F)(F)F)c2n1` [Compound 229, 6-(2-methyl-8-(trifluoromethyl)imidazo[1,2-a]pyridin-6-yl)-2-(piperazin-1-yl)thiazolo[4,5-d]pyrimidin-7(6H)-one]: the IC50 (in the series on MYB CJ mRNA; in series [1]; in series [2]; in series [3]) was > 10000 nM throughout. Besides, the GI50 at 72 h in series [4] is > 10000 nM.

In the case of `Cc1cn2cc(-n3cnc4nc(N5CCN(C)CC5)sc4c3=O)cc(C(F)(F)F)c2n1` [Compound 230, 6-(2-methyl-8-(trifluoromethyl)imidazo[1,2-a]pyridin-6-yl)-2-(4-methylpiperazin-1-yl)thiazolo[4,5-d]pyrimidin-7(6H)-one], the IC50 (in the series with MYB CJ mRNA; in series [1]; in series [2]; in series [3]) was > 10000 nM throughout. Besides, the GI50 at 72 h in series [4] is > 10000 nM.

For `Cc1cn2nc(-c3nc4ncn(C5CCNCC5)c(=O)c4s3)cc(C)c2n1` [Compound 231, 2-(2,8-dimethylimidazo[1,2-b]pyridazin-6-yl)-6-(piperidin-4-yl)thiazolo[4,5-d]pyrimidin-7(6H)-one], the IC50 (with MYB CJ mRNA; in series [1]; in series [2]; in series [3]) was 100 to 1000 nM in each case. This compound returned a GI50 at 72 h in series [4] of 1000 to 10000 nM.

With `Cc1cn2cc(-c3nc4ncn(C5CCNCC5)c(=O)c4s3)cc(F)c2n1` [Compound 232, 2-(8-fluoro-2-methylimidazo[1,2-a]pyridin-6-yl)-6-(piperidin-4-yl)thiazolo[4,5-d]pyrimidin-7(6H)-one], the IC50 with MYB CJ mRNA was 100 to 1000 nM; in series [1] it was 100 to 1000 nM; in series [2] it was 100 to 1000 nM; in series [3] it was < 100 nM. This compound came in with a GI50 at 72 h in series [4] of 100 to 1000 nM.

The term IC50 denotes the point on the concentration scale where inhibition reaches its midpoint. As usually defined, the GI50 is the concentration that inhibits growth by half. Read a low GI50 as greater sensitivity of the cells.
